From ChEMBL document CHEMBL1201862, “PubChem BioAssay data set” (2004)
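Cells were grown in 96-well plates and exposed to each compound for 48 hours at five concentrations; endpoints were interpolated linearly between bracketing concentrations, or set to the highest concentration if not reached. GI50: concentration for 50% inhibition of growth.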 Calls of active or inactive are those of the source. No stated cut-off is given here; in the data, active = GI50 up to about 1.1 µM and inactive = higher.

Legend:
Assay in all cases: growth of human tumour cells (NCI), 48 h
TK-10 = system: TK-10
NCI-H23 = system: NCI-H23
NCI-H460 = system: NCI-H460
SK-MEL-5 = system: SK-MEL-5
RXF 393 = system: RXF 393
A498 = system: A498
IGROV-1 = system: IGROV-1
HCC 2998 = system: HCC 2998
CCRF-CEM = system: CCRF-CEM
Hs-578T = system: Hs-578T
U-251 = system: U-251
HT-29 = system: HT-29
NCI-H226 = system: NCI-H226
SW-620 = system: SW-620
A549 = system: A549
MOLT-4 = system: MOLT-4
SK-MEL-28 = system: SK-MEL-28
Malme-3M = system: Malme-3M

Row | Structure (SMILES) | GI50 (TK-10) | GI50 (NCI-H23) | GI50 (NCI-H460) | GI50 (SK-MEL-5) | GI50 (RXF 393) | GI50 (A498) | GI50 (IGROV-1) | GI50 (HCC 2998) | GI50 (CCRF-CEM) | GI50 (Hs-578T) | GI50 (U-251) | GI50 (HT-29) | GI50 (NCI-H226) | GI50 (SW-620) | GI50 (A549) | GI50 (MOLT-4) | GI50 (SK-MEL-28) | GI50 (Malme-3M)
1 | CC(C)(C)OC(=O)/C=C/C(=O)O/C=C/[N+](=O)[O-] | > 100 µM (inactive) | > 100 µM (inactive) | > 100 µM (inactive) | > 100 µM (inactive) | > 100 µM (inactive) | > 100 µM (inactive) | > 100 µM (inactive) | > 100 µM (inactive) | > 100 µM (inactive) | > 100 µM (inactive) | > 100 µM (inactive) | > 100 µM (inactive) | > 100 µM (inactive) | > 100 µM (inactive) | > 100 µM (inactive) | – | – | –
2 | CC(=O)OC1CCC2(C)C(CCC3C4CC=C(C5(C)OCCO5)C4(C)CCC32)C1 (centres undefined) | 22.5 µM (inactive) | 25.6 µM (inactive) | 20 µM (inactive) | 15.6 µM (inactive) | 17.7 µM (inactive) | 24.9 µM (inactive) | 24.2 µM (inactive) | – | 19.5 µM (inactive) | 23.3 µM (inactive) | 18 µM (inactive) | 19.5 µM (inactive) | 25.9 µM (inactive) | 21 µM (inactive) | 26.7 µM (inactive) | 17.3 µM (inactive) | 21.2 µM (inactive) | 22.1 µM (inactive)
3 | Cn1c2c(c3ccccc31)CCN1C(=O)CCC21 (centres undefined) | > 10 µM (inactive) | > 10 µM (inactive) | > 10 µM (inactive) | > 10 µM (inactive) | > 10 µM (inactive) | > 10 µM (inactive) | > 10 µM (inactive) | > 10 µM (inactive) | > 10 µM (inactive) | > 10 µM (inactive) | > 10 µM (inactive) | > 10 µM (inactive) | > 10 µM (inactive) | > 10 µM (inactive) | – | > 10 µM (inactive) | > 10 µM (inactive) | > 10 µM (inactive)
4 | CCC[C@H](C)[C@H]1NC(=O)[C@@H](NC(=O)[C@@H](CC(C)C)N(C)C(=O)C2CCCN2C(=O)[C@H](C)O)[C@@H](C)OC(=O)[C@H](CC(C)C)N(C)C(=O)[C@@H]2CCCN2C(=O)[C@H](CC(C)C)NC(=O)[C@@H](C)C(=O)[C@H](C(C)C)OC(=O)C[C@@H]1O (some centres undefined) | < 0.0025 µM (active) | < 0.0025 µM (active) | < 0.0025 µM (active) | < 0.0025 µM (active) | < 0.0025 µM (active) | 0.0115 µM (active) | < 0.0025 µM (active) | < 0.0025 µM (active) | < 0.0025 µM (active) | < 0.0025 µM (active) | < 0.0025 µM (active) | < 0.0025 µM (active) | < 0.0025 µM (active) | < 0.0025 µM (active) | < 0.0025 µM (active) | < 0.0025 µM (active) | < 0.0025 µM (active) | < 0.0025 µM (active)
5 | Cn1c([C@H](C#N)c2ncccc2[N+](=O)[O-])nc2ccccc21 | > 100 µM (inactive) | 59 µM (inactive) | 76.4 µM (inactive) | – | 19.5 µM (inactive) | > 100 µM (inactive) | – | > 100 µM (inactive) | 0.632 µM (active) | 29.9 µM (inactive) | 34.8 µM (inactive) | > 100 µM (inactive) | > 100 µM (inactive) | > 100 µM (inactive) | 83.9 µM (inactive) | > 100 µM (inactive) | > 100 µM (inactive) | 83.2 µM (inactive)
6 | CC(=O)N1N=C(c2ccc3ccccc3c2O)CC1c1ccc(N(C)C)cc1 (centres undefined) | > 100 µM (inactive) | > 100 µM (inactive) | > 100 µM (inactive) | > 100 µM (inactive) | > 100 µM (inactive) | > 100 µM (inactive) | > 100 µM (inactive) | > 100 µM (inactive) | > 100 µM (inactive) | > 100 µM (inactive) | > 100 µM (inactive) | > 100 µM (inactive) | > 100 µM (inactive) | > 100 µM (inactive) | > 100 µM (inactive) | > 100 µM (inactive) | > 100 µM (inactive) | > 100 µM (inactive)
7 | COc1cc2c(cc1OCCCC(=O)Nc1cc(C(=O)Nc3cc(C(=O)Nc4cc(C(=O)NCCCN(C)C)n(C)n4)n(C)n3)n(C)n1)N=CC1CCCN1C2=O (centres undefined) | 20.7 µM (inactive) | 26.5 µM (inactive) | 41.4 µM (inactive) | 19.5 µM (inactive) | 22.4 µM (inactive) | 23 µM (inactive) | 2.96 µM (inactive) | 41.9 µM (inactive) | 2.72 µM (inactive) | 39.5 µM (inactive) | 9.77 µM (inactive) | 20 µM (inactive) | 28.4 µM (inactive) | 5.21 µM (inactive) | 55.2 µM (inactive) | 3.01 µM (inactive) | 13.4 µM (inactive) | 10.8 µM (inactive)
8 | CCSc1s/c(=N/c2ccc(/N=c3\sc(C)c(SC)s3)cc2)sc1-c1ccc(C)cc1 | > 100 µM (inactive) | > 100 µM (inactive) | > 100 µM (inactive) | > 100 µM (inactive) | > 100 µM (inactive) | > 100 µM (inactive) | > 100 µM (inactive) | > 100 µM (inactive) | > 100 µM (inactive) | > 100 µM (inactive) | > 100 µM (inactive) | > 100 µM (inactive) | – | > 100 µM (inactive) | > 100 µM (inactive) | > 100 µM (inactive) | > 100 µM (inactive) | > 100 µM (inactive)
9 | O=CN1CCN(C(=O)c2cc(Cl)cc(Cl)c2)C1=S | 15.3 µM (inactive) | 17.2 µM (inactive) | 22.5 µM (inactive) | – | 16 µM (inactive) | 15.3 µM (inactive) | 18.5 µM (inactive) | 17.6 µM (inactive) | 5.38 µM (inactive) | 21 µM (inactive) | 17 µM (inactive) | 24.3 µM (inactive) | 14.7 µM (inactive) | 19 µM (inactive) | 20.8 µM (inactive) | 15 µM (inactive) | 18.4 µM (inactive) | 3.12 µM (inactive)
10 | O=C1C(C(O)(C(F)(F)Cl)C(F)(F)Cl)CCC1C(O)(C(F)(F)Cl)C(F)(F)Cl (centres undefined) | 5.52 µM (inactive) | 2.8 µM (inactive) | > 10 µM (inactive) | 5.94 µM (inactive) | 5.05 µM (inactive) | 3.85 µM (inactive) | 4.98 µM (inactive) | 3.42 µM (inactive) | – | 1.9 µM (inactive) | 4.4 µM (inactive) | 3.26 µM (inactive) | 3.6 µM (inactive) | 4.15 µM (inactive) | 9.57 µM (inactive) | 5.55 µM (inactive) | 3.42 µM (inactive) | 5.47 µM (inactive)
11 | COc1cc(/C=[N+](\[O-])c2ccccc2Cl)ccc1OC(=S)S | 64.4 µM (inactive) | 28.5 µM (inactive) | 27.2 µM (inactive) | 16.6 µM (inactive) | 26.4 µM (inactive) | 18.9 µM (inactive) | 49.4 µM (inactive) | 37 µM (inactive) | – | 61.7 µM (inactive) | 38.5 µM (inactive) | 42.5 µM (inactive) | 57.4 µM (inactive) | 37.1 µM (inactive) | 39.8 µM (inactive) | 27 µM (inactive) | 35 µM (inactive) | 38.4 µM (inactive)
12 | O=C(O)CSC(NC(=O)C(C(F)(F)F)C(F)(F)F)(C(F)(F)F)C(F)(F)F | > 100 µM (inactive) | > 100 µM (inactive) | – | > 100 µM (inactive) | 28.4 µM (inactive) | 71 µM (inactive) | > 100 µM (inactive) | > 100 µM (inactive) | > 100 µM (inactive) | > 100 µM (inactive) | > 100 µM (inactive) | > 100 µM (inactive) | – | > 100 µM (inactive) | > 100 µM (inactive) | > 100 µM (inactive) | > 100 µM (inactive) | –
13 | O=C1Nc2ccc(Br)cc2/C1=N/c1ccc(Cl)cc1 | 21.8 µM (inactive) | 30.2 µM (inactive) | 14.4 µM (inactive) | 4.15 µM (inactive) | 18.5 µM (inactive) | > 100 µM (inactive) | – | 19.1 µM (inactive) | 11.6 µM (inactive) | 33.6 µM (inactive) | 23.8 µM (inactive) | 12.1 µM (inactive) | 23.4 µM (inactive) | 6.56 µM (inactive) | 25.4 µM (inactive) | 25.6 µM (inactive) | 23.3 µM (inactive) | 24.8 µM (inactive)
14 | O=C1CSC(/C=C/c2ccccc2)N1c1ccc(-n2c(-c3ccccc3)nc3ccccc3c2=O)cc1 (centres undefined) | > 100 µM (inactive) | > 100 µM (inactive) | 87.3 µM (inactive) | 68.9 µM (inactive) | – | > 100 µM (inactive) | 74.3 µM (inactive) | 99.5 µM (inactive) | 66.1 µM (inactive) | > 100 µM (inactive) | > 100 µM (inactive) | > 100 µM (inactive) | 48.8 µM (inactive) | > 10 µM (inactive) | > 100 µM (inactive) | 30.9 µM (inactive) | > 100 µM (inactive) | > 100 µM (inactive)
15 | CC#CC#C/C=C1/C=CC2(CCCCO2)O1 (centres undefined) | > 100 µM (inactive) | > 100 µM (inactive) | > 100 µM (inactive) | > 100 µM (inactive) | – | > 100 µM (inactive) | 70.1 µM (inactive) | > 100 µM (inactive) | 21.2 µM (inactive) | > 100 µM (inactive) | > 100 µM (inactive) | > 100 µM (inactive) | > 100 µM (inactive) | > 100 µM (inactive) | > 100 µM (inactive) | 33.5 µM (inactive) | > 100 µM (inactive) | > 100 µM (inactive)
16 | NC(Cc1c[nH]c2ccc([N+](=O)[O-])cc12)C(=O)O (centres undefined) | > 100 µM (inactive) | > 100 µM (inactive) | – | > 100 µM (inactive) | > 100 µM (inactive) | > 100 µM (inactive) | > 100 µM (inactive) | – | > 100 µM (inactive) | 24.7 µM (inactive) | > 100 µM (inactive) | > 100 µM (inactive) | > 100 µM (inactive) | > 100 µM (inactive) | > 100 µM (inactive) | > 100 µM (inactive) | > 100 µM (inactive) | > 100 µM (inactive)
